ChEMBL document CHEMBL5247622, “Structural optimization of Imidazo[1, 2-a]pyridine derivatives for the treatment of gastric cancer via STAT3 signaling pathway” (Eur J Med Chem, 2022)
The source made the active and inactive calls. The calls are words filed in the database; no cut-off is given here.

Columns and labels:
[1] = tested on: AGS; experiment: Antiproliferative activity against human AGS cells assessed as reduction in cell viability incubated for 72 hrs by CCK-8 assay; format: functional, cell-based
[2] = tested on: MGC-803; experiment: Antiproliferative activity against human MGC-803 cells assessed as reduction in cell viability incubated for 72 hrs by CCK-8 assay; format: functional, cell-based; details: MGC-803, 72 h
[3] = Metabolic stability in human liver microsomes assessed as half life; format: ADME, Microsome
[4] = biological target: Signal transducer and activator of transcription 3 (Homo sapiens) (UniProt P40763); experiment: Inhibition of STAT3 (unknown origin) transcriptional signaling transfected in HEK293T cells at 3 uM incubated for 24 hrs by firefly luciferase gene reporter assay; format: cell-based
Chain of Signal transducer and activator of transcription 3 (Homo sapiens) (P40763 whole entry): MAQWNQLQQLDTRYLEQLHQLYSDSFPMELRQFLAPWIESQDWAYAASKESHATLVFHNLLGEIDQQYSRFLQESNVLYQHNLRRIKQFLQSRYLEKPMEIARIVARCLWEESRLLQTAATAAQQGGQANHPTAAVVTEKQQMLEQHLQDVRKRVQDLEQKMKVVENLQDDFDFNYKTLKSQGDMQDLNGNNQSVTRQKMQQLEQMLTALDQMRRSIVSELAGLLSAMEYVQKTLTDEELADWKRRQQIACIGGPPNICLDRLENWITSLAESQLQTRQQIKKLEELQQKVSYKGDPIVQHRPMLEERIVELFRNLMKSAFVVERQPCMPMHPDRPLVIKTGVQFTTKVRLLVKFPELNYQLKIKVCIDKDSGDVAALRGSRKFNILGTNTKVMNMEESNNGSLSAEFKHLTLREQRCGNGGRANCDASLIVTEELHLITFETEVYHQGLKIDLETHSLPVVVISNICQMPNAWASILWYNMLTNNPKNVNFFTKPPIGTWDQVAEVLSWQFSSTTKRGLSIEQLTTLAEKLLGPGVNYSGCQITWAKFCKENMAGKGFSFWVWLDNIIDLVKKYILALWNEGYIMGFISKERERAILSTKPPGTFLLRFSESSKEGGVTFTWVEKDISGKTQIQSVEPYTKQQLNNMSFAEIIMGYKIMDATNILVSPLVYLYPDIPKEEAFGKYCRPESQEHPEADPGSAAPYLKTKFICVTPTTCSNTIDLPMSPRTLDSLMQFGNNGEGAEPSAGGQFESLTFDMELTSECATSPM

[5] = biological target: Signal transducer and activator of transcription 3 (Homo sapiens) (UniProt P40763); experiment: Thermal stabilization of STAT3 in human AGS cells at 1 uM at 37 to 54 degreeC incubated for 1 hr by cellular thermal shift assay; format: cell-based
[6] = tested on: AGS; experiment: Inhibition of colony formation in human AGS cells at 0.3 to 3 uM incubated for 10 to 15 days by crystal violet staining based assay; format: functional, cell-based; details: dose 0.3-3 µM, time 10-15 day
[7] = tested on: MGC-803; experiment: Inhibition of colony formation in human MGC-803 cells at 0.3 to 3 uM incubated for 10 to 15 days by crystal violet staining based assay; format: functional, cell-based; details: dose 0.3-3 µM, time 10-15 day
[8] = tested on: AGS; experiment: Induction of apoptosis in human AGS cells assessed as viable cells at 0.3 uM incubated for 48 hrs by Annexin V-FITC/PI staining based flow cytometry method (reference value: 94.8 %); format: functional; details: read-out: Activity
[9] = tested on: AGS; experiment: Induction of apoptosis in human AGS cells assessed as viable cells at 1 uM incubated for 48 hrs by Annexin V-FITC/PI staining based flow cytometry method (reference value: 94.8 %); format: functional; details: read-out: Activity
[10] = tested on: AGS; experiment: Induction of apoptosis in human AGS cells assessed as viable cells at 3 uM incubated for 48 hrs by Annexin V-FITC/PI staining based flow cytometry method (reference value: 94.8 %); format: functional; details: read-out: Activity
[11] = tested on: AGS; experiment: Induction of apoptosis in human AGS cells assessed as early apoptotic cells at 0.3 uM incubated for 48 hrs by Annexin V-FITC/PI staining based flow cytometry method (reference value: 2.38 %); format: functional
[12] = tested on: AGS; experiment: Induction of apoptosis in human AGS cells assessed as early apoptotic cells at 1 uM incubated for 48 hrs by Annexin V-FITC/PI staining based flow cytometry method (reference value: 2.38 %); format: functional
[13] = tested on: AGS; experiment: Induction of apoptosis in human AGS cells assessed as early apoptotic cells at 3 uM incubated for 48 hrs by Annexin V-FITC/PI staining based flow cytometry method (reference value: 2.38 %); format: functional
[14] = tested on: AGS; experiment: Induction of apoptosis in human AGS cells assessed as late apoptotic cells at 0.3 uM incubated for 48 hrs by Annexin V-FITC/PI staining based flow cytometry method (reference value: 2.46 %); format: functional
[15] = tested on: AGS; experiment: Induction of apoptosis in human AGS cells assessed as late apoptotic cells at 1 uM incubated for 48 hrs by Annexin V-FITC/PI staining based flow cytometry method (reference value: 2.46 %); format: functional
[16] = tested on: AGS; experiment: Induction of apoptosis in human AGS cells assessed as late apoptotic cells at 3 uM incubated for 48 hrs by Annexin V-FITC/PI staining based flow cytometry method (reference value: 2.46 %); format: functional
[17] = tested on: AGS; experiment: Induction of apoptosis in human AGS cells assessed as necrotic cells at 0.3 uM incubated for 48 hrs by Annexin V-FITC/PI staining based flow cytometry method (reference value: 0.32 %); format: functional
[18] = tested on: AGS; experiment: Induction of apoptosis in human AGS cells assessed as necrotic cells at 1 uM incubated for 48 hrs by Annexin V-FITC/PI staining based flow cytometry method (reference value: 0.32 %); format: functional
[19] = tested on: AGS; experiment: Induction of apoptosis in human AGS cells assessed as necrotic cells at 3 uM incubated for 48 hrs by Annexin V-FITC/PI staining based flow cytometry method (reference value: 0.32 %); format: functional
[20] = tested on: MGC-803; experiment: Antitumor activity against human MGC-803 cells xenografted in BALB/c mouse assessed as inhibition of tumor volume at 15 mg/kg,ip administrated for 21 consecutive days; format: functional, organism-based
[21] = tested on: MGC-803; experiment: Antitumor activity against human MGC-803 cells xenografted in BALB/c mouse assessed as inhibition of tumor weight at 15 mg/kg,ip administrated for 21 consecutive days; format: functional, organism-based
[22] = tested on: MGC-803; experiment: Antitumor activity against human MGC-803 cells xenografted in BALB/c mouse assessed as tumor growth inhibition at 15 mg/kg,ip administrated for 21 consecutive days relative to control; format: functional; details: read-out: TGI

| IC50 [1] | IC50 [2] | half-life [3] | inhibition [4] | Structure (SMILES) | other results |
| --- | --- | --- | --- | --- | --- |
| > 5000 nM | > 5000 nM |  |  | O=C(Nc1ccc(-c2cnc3cc(N4CCC4)ccn23)cc1)c1ccc([N+](=O)[O-])o1 |  |
| 710 nM | 2910 nM | 24.2 min | Active | COc1ccn2c(-c3ccc(NC(=O)c4ccc([N+](=O)[O-])o4)c(C(F)(F)F)c3)cnc2c1 |  |
| 3880 nM | 7520 nM |  |  | COc1ccn2c(-c3ccc(NC(=O)c4ccc([N+](=O)[O-])o4)c(OC)c3)cnc2c1 |  |
| > 20000 nM | > 20000 nM |  |  | COc1ccn2c(-c3ccc(NC(=O)c4ccc([N+](=O)[O-])o4)cc3OC)cnc2c1 |  |
| 1240 nM | 1150 nM |  |  | O=C(Nc1ccc(-c2cnc3cc(N4CCCC4)ccn23)cc1)c1ccc([N+](=O)[O-])o1 |  |
| 700 nM | 1080 nM | 25.7 min | Active | COc1ccn2c(-c3ccc(NC(=O)c4ccc([N+](=O)[O-])o4)cc3F)cnc2c1 |  |
| > 20000 nM | > 20000 nM |  |  | COc1ccn2c(-c3ccc(NC(=O)c4ccc([N+](=O)[O-])o4)nc3)cnc2c1 |  |
| 2100 nM | 2720 nM | 50.1 min | Active | COc1ccn2c(-c3ccc(NC(=O)c4ccc([N+](=O)[O-])o4)c(C)c3C(F)(F)F)cnc2c1 |  |
| 640 nM | 1030 nM | 43 min | Active | COc1ccn2c(-c3ccc(NC(=O)c4ccc([N+](=O)[O-])o4)cc3C)cnc2c1 |  |
| 430 nM | 1380 nM | 39.9 min | Active | COc1ccn2c(-c3ccc(NC(=O)c4ccc([N+](=O)[O-])o4)c(C)c3)cnc2c1 |  |
| 360 nM | 590 nM | 24.7 min | Active | O=C(Nc1ccc(-c2cnc3ccccn23)cc1)c1ccc([N+](=O)[O-])o1 |  |
| 2130 nM | 3040 nM |  |  | O=C(Nc1ccc(-c2cnc3cc(N4CCS(=O)(=O)CC4)ccn23)cc1)c1ccc([N+](=O)[O-])o1 |  |
| 1530 nM | 3100 nM |  |  | CC1(O)CCN(c2ccn3c(-c4ccc(NC(=O)c5ccc([N+](=O)[O-])o5)cc4)cnc3c2)CC1 |  |
| 410 nM | 940 nM | 13.5 min | Active | CC(=O)N1CC=C(c2ccn3c(-c4ccc(NC(=O)c5ccc([N+](=O)[O-])o5)cc4)cnc3c2)CC1 |  |
| 560 nM | 750 nM |  |  | O=C(Nc1ccc(-c2cnc3cc(Br)ccn23)cc1)c1ccc([N+](=O)[O-])o1 |  |
| 720 nM | 860 nM | 28.3 min | Active | COc1ccn2c(-c3ccc(NC(=O)c4ccc([N+](=O)[O-])o4)cc3)cnc2c1 |  |
| 2220 nM | 7410 nM |  |  | O=C(Nc1ccc(-c2cnc3cc(N4CCOCC4)ccn23)cc1)c1ccc([N+](=O)[O-])o1 |  |
| 730 nM | 1830 nM | 36.7 min | Active | Cc1cc(-c2cnc3ccccn23)ccc1NC(=O)c1ccc([N+](=O)[O-])o1 |  |
| 2700 nM | 3580 nM |  |  | CN1CCCN(c2ccn3c(-c4ccc(NC(=O)c5ccc([N+](=O)[O-])o5)cc4)cnc3c2)CC1 |  |
| 2340 nM | 1580 nM |  |  | CN1CCN(c2ccn3c(-c4ccc(NC(=O)c5ccc([N+](=O)[O-])o5)cc4)cnc3c2)CC1 |  |
| 1920 nM | 1650 nM |  |  | O=C(Nc1ccc(-c2cnc3cc(N4CCN(C5CC5)CC4)ccn23)cc1)c1ccc([N+](=O)[O-])o1 |  |
| 790 nM | 1100 nM |  |  | O=C(Nc1ccc(-c2cnc3cc(C4=CCN(C5COC5)CC4)ccn23)cc1)c1ccc([N+](=O)[O-])o1 |  |
| 1700 nM | 4620 nM |  |  | O=C(Nc1ccc(-c2cnc3cc(Cl)ccn23)cc1)c1ccc([N+](=O)[O-])o1 |  |

| Structure (SMILES) | IC50 [1] | IC50 [2] | half-life [3] | inhibition [4] | other results |
| --- | --- | --- | --- | --- | --- |
| O=C(Nc1ccc(-c2cnc3cc(C4=CCNCC4)ccn23)cc1)c1ccc([N+](=O)[O-])o1 | 1280 nM | 790 nM | 12.2 min | Active |  |
| O=C(Cc1c(-c2ccccc2)nc2ccccn12)Nc1ccc2c(c1)S(=O)(=O)C=C2 | 1550 nM |  | 24.2 min | Active | Activity [5]: Active; inhibition [6]: Dose-Dependent Effect; inhibition [7]: Dose-Dependent Effect; viability at 0.3 µM [8]: 94.1%; viability at 1 µM [9]: 91.8%; viability at 3 µM [10]: 90.2%; Activity [11]: 2.59%; Activity [12]: 3.19%; Activity [13]: 7.98%; Activity [14]: 3.01%; Activity [15]: 4.84%; Activity [16]: 1.3%; Activity [17]: 0.29%; Activity [18]: 0.19%; Activity [19]: 0.5%; inhibition [20]: Active; inhibition [21]: Active; inhibition in vivo at 15 mg/kg [22]: 54.5% |
